Measured values reported in patent publication US11331364B2, “Use for JNK inhibitor molecules for treatment of various diseases” (Xigen Inflammation Ltd., priority 2014, dated 2022).
pIC50: −log10 of the molar value. Square brackets hold non-standard residues; d marks the D form. Peptide text beside a SMILES is read from it.

Legend:
hJNK3 = hJNK3 (Homo sapiens, UniProt P53779); test: hJNK3 | IC50; conditions: read-out: hJNK3 | IC50
Excerpt: (§1) Table printed on a drawing sheet, Fig. 4
Head of the field: hJNK3 | IC50
(§2) The patent's description of the figure: FIG. 4: Table illustrating the inhibitory efficacy of several JNK inhibitors according to the present invention, which are fusion proteins of a JNK inhibitory (poly-)peptide sequence and a transporter sequence. Given are the IC50 values in the nM range, the respective standard error of the mean (SEM) and the number of experiments performed (n).
(§3) First copying reader's note: The sheet prints no unit for IC50 (the description says nM range); decimal commas are used, except for three IC50 cells printed with a point (3820.81, 5340.33, 8130.86).
Where the first naming reader finds the target: head: hJNK3 | IC50

hJNK1 = target: T1, hJNK1 (Homo sapiens, UniProt P45983); test: hJNK1 | IC50; conditions: read-out: hJNK1 | IC50
T1 construct: His; purchased Upstate 14-327
Excerpt: as §1
Head of the field: hJNK1 | IC50
as §2, §3
Where the first naming reader finds the target: head: hJNK1 | IC50

hJNK2 = hJNK2 (Homo sapiens, UniProt P45984); test: hJNK2 | IC50; conditions: read-out: hJNK2 | IC50
Excerpt: as §1
Head of the field: hJNK2 | IC50
as §2, §3
Where the first naming reader finds the target: head: hJNK2 | IC50

[1] = tested on: established type II collagen arthritis in rats; test: Chronic established type II collagen arthritis, daily IV 14 days; assay type: in vivo, rat
Excerpt: Rat collagen arthritis is an experimental model of polyarthritis that has been widely used for preclinical testing of numerous anti-arthritic agents that are either under preclinical or clinical investigation or are currently used as therapeutics in this disease. […] Animals were terminated on arthritis day 14.

[2] = tested on: endotoxins-induced uveitis albino rat model; test: Endotoxins-induced uveitis (EIU), single intravenous injection, clinical scoring; assay type: in vivo; set-up: key to clinical score (mean±SEM) / clinical score, median: clinical ocular inflammation score per eye, 0 to 4; conditions: sub-conjunctival, 20 Dg/eye; 24 h after LPS
Experimental: The anti-inflammatory potency of the JNK inhibitor of SEQ ID NO: 172 was tested in albino rats following intravenous administration (EIU/LPS model). The aim of this study was to determine the effects of single intravenous injections of SEQ ID NO: 172 (0.015, 0.18, and 1.80 mg/kg) on the inflammatory response in an endotoxins-induced uveitis albino rat model and to compare these affects to those obtained with prior art JNK inhibitor of SEQ ID NO: 197 (2 mg/kg). As a further control served phosphate sodic dexamethasone (“reference”) and vehicle (0.9% NaCl).
Sixty (60) male Lewis rats were randomly divided into six (6) groups often (10) animals each. 0.9% NaCl (vehicle, “control”), SEQ ID NO: 197 at 2 mg/kg and SEQ ID NO: 172 at three concentrations (1.80 mg/kg, 0.18 mg/kg and 0.015 mg/kg) were administered by intravenous injection just before EIU induction (on the day of induction). Accordingly, phosphate sodic dexamethasone (20 Dg/eye, 5 μl; “reference”) was administered by a single sub-conjunctival injection in both eyes just before EIU induction (on the day of induction). EIU was induced by footpad injection of lipopolysaccharide (LPS, 1 mg/kg). 24 hours after LPS injection, inflammatory response was evaluated by clinical scoring.
The intensity of clinical ocular inflammation was scored on a scale from 0 to 4 for each eye: […]

[3] = tested on: Endotoxin-Induced Uveitis (EIU) model in rats; test: Action duration in endotoxin-induced uveitis (EIU), clinical scoring and PMN cells quantification; assay type: in vivo, rat; conditions: 2 mg/kg i.v. immediately before EIU induction
Experimental: […] (18) female Lewis rats (36 eyes) were randomly divided into 6 groups of 3 animals each. EIU was induced by a single footpad injection of 100 µl sterile pyrogen-free saline containing 200 µg of LPS (Lipopolysaccharides from Salmonella typhimurium, Sigma-Aldrich, France)(2 mg/ml).
Animals were treated 48 hours, 1 week, 2 weeks or 4 weeks before EIU induction by intravenous injection of the JNK inhibitor according to SEQ ID NO: 172 (“XG-104”) at a single dose of 1 mg/kg (dose volume 1 ml/kg) in the tail vein. Dexamethasone 2 mg/kg or vehicle (NaCl 0.9%) were injected intravenously immediately before EIU induction.
The effect of the JNK inhibitor according to SEQ ID NO: 172 (“XG-104”) on EIU was evaluated using clinical scoring and PMN cells quantification 24 hours after induction. Ocular examinations were performed by slit lamp at 24 hours i.e. at the clinical peak of the disease in this model. The intensity of clinical ocular inflammation was scored on a scale from 0 to 5 for each eye: • Grade 0: no inflammation, • Grade 1: presence of a minimal iris and conjunctival vasodilatation but without the observation of flare or cells in the anterior chamber (AC), • Grade 2: presence of moderate iris and conjunctival vessel dilation but without evident flare or cells in the AC, • Grade 3: presence of intense iris vessels dilation, flare and less than 10 cells per slit lamp, field in the AC, • Grade 4: presence of more severe clinical signs than grade 3, with more than 10 cells in the AC with or without the formation of a hypopyon, • Grade 5: presence of intense inflammatory reaction, fibrin formation in the AC and total seclusion of the pupil.
For histology, eighteen eyeballs (one per animal) were collected and fixed for 1 h at room temperature in phosphate buffered saline (PBS) containing 4% paraformaldehyde before being rinsed overnight in PBS. The next day, samples were embedded in optimal cutting temperature (OTC) compound (Tissue-Tek®, Sakura Finetek, Zoeterwoude, Netherland) and the optic nerve level using a cryostat (Leica CM 3050S, France) and mounted on super-frost slides for histology. After nuclei staining with DAPI (Sigma-Aldrich, France), sections were mounted in PBS/Glycerol (1/1) and observed by fluorescence photomicroscopy (FXA Microphot, Nikon, USA). Digitized micrographs were obtained usinga digital camera (Spot, BFI Optilas, France). PMN cells identified by the shape of their nuclei stained with DAPI, were quantified on histological sections. The analysis was performed with 2 different sections per eye at the optic nerve head level.
Twenty-four hours after LPS induction, clinical scores for the vehicle-treated rats were 4.6±0.2 (mean±SEM, n=8). Reduction was calculated as (grade in vehicle-treated eye—grade in test item treated eye)/(grade in vehicle-treated eye). A significant reduction (*p<0.05, **p<0.01) in the severity of the ocular inflammation was detected 24 hours after induction and intravenous treatment with the JNK inhibitor according to SEQ ID NO: 172 (“XG-104”) (1 mg/kg) administered 48 hours before EIU induction (mean score: 2.8±0.3), corresponding to a 40% (**) decrease of EIU scores compared with the score observed in vehicle group, 24 hours after induction and intravenous treatment with the JNK inhibitor according to SEQ ID NO: 172 (“XG-104”) (1 mg/kg) administered 1 week before EIU induction (mean score: 3.3±0.3), corresponding to a 27% (*) decrease of EIU scores compared with the score observed in vehicle group, and 24 hours after induction and intravenous treatment with the JNK inhibitor according to SEQ ID NO: 172 (“XG-104”) (1 mg/kg) administered 2 weeks before EIU induction (mean score: 3.0±0.2), corresponding to a 35% (**) decrease of EIU scores compared with the score observed in vehicle group. […]

[4] = tested on: acute CYP-induced cystitis in female Sprague-Dawley rats; test: Cyclophosphamide-induced acute cystitis, intravesical treatment, visceral pain and bladder inflammation; assay type: in vivo, rat; conditions: 50 mg/mL, i.ves.
Experimental: This preclinical model is well-used to test therapeutic approaches for the treatment of interstitial cystitis/painful bladder syndrome (IC/PBS).
Animals were acclimatized to the laboratory conditions for at least 3 days before the start of any experiments. The animals were allocated to the following four experimental groups (n=10 animals per group):
To induce acute cystitis, a single i.p. injection of CYP at a dose of 150 mg/kg in a final volume of 5 mL/kg was performed. Control rats received physiological saline under the same experimental conditions as CYP (final volume of 5 mL/kg, i.p.).
On the day of each experiment, weight of rats was recorded.
Standardized conditions including fixed time-of-day (a.m. to minimize the potential circadian variations in the behaviours responses) and single-experimenter testing of all animals were applied to minimize variability behavior-based pain testing. Visceral pain including allodynia and hyperalgesia was evaluated by applying to the lower abdomen, close to the urinary bladder, a set of 8 calibrated von Frey filaments of increasing forces (1, 2, 4, 6, 8, 10, 26 and 60 g) with an interstimulus interval of 5 seconds. Prior testing, the abdominal area designed for mechanical stimulation of each animal was shaved. Animals were then placed on a raised wire mesh floor under individual transparent Plexiglas box and acclimatized for at least 30 minutes before starting the von Frey test. Filaments were then applied 1-2 seconds through the mesh floor with enough strength to cause the filament to slightly bend. Each filament was tested 3 times. Care was taken to stimulate different areas within the lower abdominal region in the vicinity of the urinary bladder to avoid desensitization.
Nociceptive behaviors were scored for each animal and each filament as follows:
The study design is schematically shown in FIG. 50 A. Birefly, acute cystitis was induced by CYP injection (i.p.) at Do (as described above).
Urinary bladders were rapidly collected and cleaned from lipoid tissue. Urinary bladders were weighed, cut at the bladder neck as well as oedema and haemorrhage scoring was performed (see table below). Finally, wall thickness was measured using a digital caliper by placing the bladder wall between the two outside jaws.

[5] = vs disease controls, IV QD d1-14, Dex 0.05 mg/kg, SEQ ID NO: 172 up to 5 mg/kg

T1 sequence (P45983 whole entry, looked up): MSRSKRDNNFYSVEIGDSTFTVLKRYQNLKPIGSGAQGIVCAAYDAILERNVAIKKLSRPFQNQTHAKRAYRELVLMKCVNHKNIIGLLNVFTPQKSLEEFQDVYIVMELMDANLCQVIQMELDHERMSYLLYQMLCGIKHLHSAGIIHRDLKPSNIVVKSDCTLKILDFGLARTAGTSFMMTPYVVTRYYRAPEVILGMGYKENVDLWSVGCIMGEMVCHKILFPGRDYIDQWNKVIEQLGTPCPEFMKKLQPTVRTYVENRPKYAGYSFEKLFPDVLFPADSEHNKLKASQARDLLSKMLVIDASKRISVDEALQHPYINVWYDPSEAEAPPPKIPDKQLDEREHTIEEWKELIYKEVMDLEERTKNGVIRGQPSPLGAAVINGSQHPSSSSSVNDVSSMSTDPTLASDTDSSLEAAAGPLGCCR
Sequence of hJNK2 (P45984 whole entry, looked up): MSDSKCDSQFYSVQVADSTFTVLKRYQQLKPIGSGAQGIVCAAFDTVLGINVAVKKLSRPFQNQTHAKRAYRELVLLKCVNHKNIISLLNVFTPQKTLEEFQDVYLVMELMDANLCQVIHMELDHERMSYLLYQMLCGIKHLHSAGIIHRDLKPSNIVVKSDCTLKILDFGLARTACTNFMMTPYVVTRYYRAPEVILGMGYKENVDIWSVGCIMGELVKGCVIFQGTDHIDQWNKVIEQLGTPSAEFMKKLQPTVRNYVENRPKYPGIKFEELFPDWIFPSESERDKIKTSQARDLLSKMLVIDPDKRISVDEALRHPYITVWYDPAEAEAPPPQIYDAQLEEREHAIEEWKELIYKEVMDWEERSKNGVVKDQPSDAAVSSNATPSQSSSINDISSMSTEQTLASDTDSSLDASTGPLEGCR
Sequence of hJNK3 (P53779 whole entry, looked up): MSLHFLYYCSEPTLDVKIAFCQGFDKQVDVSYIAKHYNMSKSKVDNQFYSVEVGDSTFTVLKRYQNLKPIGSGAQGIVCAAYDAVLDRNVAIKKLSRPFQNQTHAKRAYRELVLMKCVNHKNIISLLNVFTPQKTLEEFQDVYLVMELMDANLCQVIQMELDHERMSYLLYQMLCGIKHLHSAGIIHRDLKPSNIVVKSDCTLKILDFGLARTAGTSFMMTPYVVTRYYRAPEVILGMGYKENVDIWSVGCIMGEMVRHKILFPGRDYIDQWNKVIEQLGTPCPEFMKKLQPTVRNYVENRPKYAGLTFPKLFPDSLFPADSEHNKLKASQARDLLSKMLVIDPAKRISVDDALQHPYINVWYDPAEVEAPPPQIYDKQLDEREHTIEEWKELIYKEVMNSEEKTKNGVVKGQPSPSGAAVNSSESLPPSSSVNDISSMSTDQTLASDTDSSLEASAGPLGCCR

CC(C)C[C@@H](NC(=O)[C@@H](Cc1ccccc1)NC(=O)[C@H]1CCCN1C(=O)[C@@H](CCC(N)=O)NC(=O)[C@H](NC(=O)[C@H]1CCCN1C(=O)[C@@H](CCCNC(=N)N)NC(=O)[C@@H](CO)NC(=O)[C@@H](CCC(N)=O)NC(=O)[C@H](N)CC(=O)O)C(C)C)C(=O)N[C@H](CC(N)=O)C(=O)N[C@H](CC(C)C)C(=O)N[C@@H](C(=O)N[C@@H](C(=O)N1CCC[C@@H]1C(=O)N[C@H](CCCNC(=N)N)C(=O)N[C@H](CCCCN)C(=O)N1CCC[C@@H]1C(=O)N[C@H](CCCNC(=N)N)C(=O)N1CCC[C@@H]1C(=O)N1CCC[C@@H]1C(=O)N[C@H](CCCNC(=N)N)C(=O)N[C@H](CCCNC(=N)N)C(=O)N[C@H](CCCNC(=N)N)C(=O)N[C@H](CCC(N)=O)C(=O)N[C@H](CCCNC(=N)N)C(=O)N[C@H](CCCNC(=N)N)C(=O)N[C@H](CCCCN)C(=O)N[C@H](CCCCN)C(=O)N[C@H](CCCNC(=N)N)C(=O)NCC(N)=O)[C@H](C)O)[C@H](C)O [SEQ ID NO: 197, dqsrpvqpflnlttprkprpprrrqrrkkrg] (H-[dD][dQ][dS][dR][dP][dV][dQ][dP][dF][dL][dN][dL][dT][dT][dP][dR][dK][dP][dR][dP][dP][dR][dR][dR][dQ][dR][dR][dK][dK][dR]G-NH2)
pIC50 (hJNK3): 5.89 | pIC50 (hJNK1): 4.61 | pIC50 (hJNK2): 6.10

C[C@@H]1C[C@H]2[C@@H]3CCC4=CC(=O)C=C[C@]4(C)[C@@]3(F)[C@@H](O)C[C@]2(C)[C@@]1(O)C(=O)CO [dexamethasone, reference compound]
ankle diameter AUC, reduction toward normal ([1]; 0.05 mg/kg IV QD d1-14): 97% | inhibition of body weight loss vs disease controls ([1]; 0.05 mg/kg IV QD d1-14): 21% | final paw weights, reduction toward normal ([1]; Dex 0.05 mg/kg IV QD d1-14): 114% | spleen weights relative to body weight [1, 5]: significantly (p<0.05 by ANOVA) reduced | thymus weights relative to body weight [1, 5]: significantly (p<0.05 by ANOVA) reduced | clinical score (mean±SEM) [2]: 0.8±0.2 | clinical score, median [2]: 0.5 | clinical score (mean±SEM) [3]: 1.4±0.2 | decrease of clinical scores vs vehicle group [3]: 69%

CC(C)Cc1ccc(C(C)C(=O)O)cc1 (stereo not drawn) [ibuprofen, reference compound]
urine observation [4]: reddish urine was noticed for some animal | haemorrhage scores vs vehicle ([4]; 24 h after CYP): no significant change | nociceptive scores vs vehicle ([4]; 24 h after CYP): significant decrease | nociceptive threshold vs vehicle ([4]; 24 h after CYP): significantly increased | oedema scores vs vehicle ([4]; 24 h after CYP): significant decrease | urinary bladder wall thickness vs vehicle ([4]; 24 h after CYP): significant decrease
